The NIST ThermoML archive (doi:10.1016/j.fluid.2013.11.030)
± gives the expanded uncertainty stated by the source.

Conditions: Liquid, Ebulliometric method (Recirculating still)

CC(C)=O [acetone]
vapor or sublimation pressure (329.3 K): 101.33 ± 1.5 kPa

CCCCCCBr [1-bromohexane]
vapor or sublimation pressure (428.5 K): 101.33 ± 1.5 kPa

Cn1ccnc1 [1-methylimidazole]
vapor or sublimation pressure (471.6 K): 101.33 ± 1.4 kPa
